Test results published in ChEMBL document CHEMBL1687910, “Isoindolinone inhibitors of the murine double minute 2 (MDM2)-p53 protein-protein interaction: structure-activity studies leading to improved potency” (J Med Chem, 2011).
Each block holds one compound with its values, some of them ahead of it. Calls of active or inactive are those of the source. No cut-off for these calls is given here.

What was measured:
[1] = biological target: T1, E3 ubiquitin-protein ligase Mdm2 (Homo sapiens, UniProt Q00987); assay: Inhibition of Mdm2 -p53 protein interaction by ELISA
Target sequence in this assay (Q00987 whole entry): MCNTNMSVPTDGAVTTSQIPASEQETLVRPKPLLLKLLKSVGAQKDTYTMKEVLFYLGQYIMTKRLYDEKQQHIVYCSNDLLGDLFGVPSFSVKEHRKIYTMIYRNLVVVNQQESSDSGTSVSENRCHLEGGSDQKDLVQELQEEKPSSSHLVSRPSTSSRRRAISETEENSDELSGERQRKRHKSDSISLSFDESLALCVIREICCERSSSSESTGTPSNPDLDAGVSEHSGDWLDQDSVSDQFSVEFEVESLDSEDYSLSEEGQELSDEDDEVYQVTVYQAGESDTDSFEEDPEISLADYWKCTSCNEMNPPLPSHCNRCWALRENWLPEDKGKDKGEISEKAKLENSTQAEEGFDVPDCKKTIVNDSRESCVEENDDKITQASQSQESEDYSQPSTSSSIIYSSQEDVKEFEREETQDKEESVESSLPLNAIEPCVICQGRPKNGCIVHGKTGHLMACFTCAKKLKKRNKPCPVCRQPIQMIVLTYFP

[2] = biological target: T1, E3 ubiquitin-protein ligase Mdm2; assay: Inhibition of Mdm2 -p53 protein interaction in human […] cells assessed as induction of p21 protein at 1 to 20 uM after 6 hrs by Western blot analysis; type: cell-based
Target sequence in this assay (Q00987 whole entry, looked up): as the sequence (Q00987 whole entry) above

[3] = biological target: T1, E3 ubiquitin-protein ligase Mdm2; assay: Inhibition of Mdm2 -p53 protein interaction in human […] cells assessed as induction of p53 protein at 1 to 20 uM after 6 hrs by Western blot analysis; type: cell-based
Target sequence in this assay (Q00987 whole entry, looked up): as the sequence (Q00987 whole entry) above

[4] = biological target: T1, E3 ubiquitin-protein ligase Mdm2; assay: Inhibition of Mdm2 -p53 protein interaction in human […] cells assessed as induction of MDM2 protein at 1 to 20 uM after 6 hrs by Western blot analysis; type: cell-based
Target sequence in this assay (Q00987 whole entry, looked up): as the sequence (Q00987 whole entry) above

[5] = biological target: T1, E3 ubiquitin-protein ligase Mdm2; assay: Inhibition of Mdm2 -p53 protein interaction in human […] cells assessed as induction of p53 protein at 10 uM after 6 hrs by Western blot analysis; type: cell-based
Target sequence in this assay (Q00987 whole entry, looked up): as the sequence (Q00987 whole entry) above

[6] = biological target: T1, E3 ubiquitin-protein ligase Mdm2; assay: Inhibition of Mdm2 -p53 protein interaction in human […] cells assessed as induction of p21 protein at 10 uM after 6 hrs by Western blot analysis; type: cell-based
Target sequence in this assay (Q00987 whole entry, looked up): as the sequence (Q00987 whole entry) above

SAOS-2 = assay: Cytotoxicity against human Saos2 cells after 72 hrs by sulforhodamine B assay; type: functional; conditions: SAOS-2, 72 h
[7] = Cytotoxicity against human LS cells after 72 hrs by sulforhodamine B assay; type: functional
SJSA-1 = assay: Cytotoxicity against human SJSA1 cells after 72 hrs by sulforhodamine B assay; type: functional; conditions: SJSA-1, 72 h
HCT-116 [8] = assay: Cytotoxicity against human p53 expressing HCT116 cells after 72 hrs by sulforhodamine B assay; type: functional; conditions: HCT-116, 72 h
[9] = Cytotoxicity against human NGP cells after 72 hrs by sulforhodamine B assay; type: functional
HCT-116 [10] = assay: Cytotoxicity against p53 deficient human HCT116 cells after 72 hrs by sulforhodamine B assay; type: functional; conditions: HCT-116, 72 h

Compound: Cc1ccc(CN2C(=O)c3ccccc3C2(O)c2ccc(Cl)cc2)cc1 (stereo unspecified)
IC50 [1]: 15 µM

Compound: N#Cc1ccc(CN2C(=O)c3ccccc3C2(O)c2ccc(Cl)cc2)cc1 (stereo unspecified)
IC50 [1]: 6 µM

Compound: Nc1ccc(CCN2C(=O)c3ccccc3C2(O)c2ccc(Cl)cc2)cc1 (stereo unspecified)
IC50 [1]: 6.2 µM

Compound: O=C(c1ccccc1)c1ccc(CN2C(=O)c3ccccc3C2(O)c2ccc(Cl)cc2)cc1 (stereo unspecified)
IC50 [1]: > 20 µM

Compound: O=C1c2ccccc2C(O[C@H]2CC[C@@H](O)C2)(c2ccc(Cl)cc2)N1Cc1ccc([N+](=O)[O-])cc1 (mixture of isomers)
IC50 [1]: 0.4 µM

Compound: O=C1c2ccccc2C(O[C@H]2C=C[C@@H](O)C2)(c2ccc(Cl)cc2)N1Cc1ccccc1 (mixture of isomers)
IC50 [1]: 4.7 µM

Compound: O=C1c2ccccc2C(O[C@H]2CCC[C@H](O)CCC2)(c2ccc(Cl)cc2)N1Cc1ccc([N+](=O)[O-])cc1 (mixture of isomers)
inhibition [2]: Dose-dependent effect | inhibition [3]: Dose-dependent effect | IC50 [1]: 0.38 µM | inhibition [4]: Dose-dependent effect

Compound: O=C1c2ccccc2C(OCC2(CO)CC2)(c2ccc(Cl)cc2)N1Cc1ccncc1 (racemic)
IC50 [1]: 252 µM

Compound: CC(C)(CO)COC1(c2ccc(Cl)cc2)c2ccccc2C(=O)N1Cc1ccc([N+](=O)[O-])cc1 (racemic)
inhibition [2]: Dose-dependent effect | inhibition [3]: Dose-dependent effect | inhibition [4]: Dose-dependent effect

Compound: O=C1c2ccccc2C(OC[C@H]2CC[C@H](CO)CC2)(c2ccc(Cl)cc2)N1Cc1ccc([N+](=O)[O-])cc1 (mixture of isomers)
inhibition [2]: Dose-dependent effect | inhibition [5]: Active | inhibition [6]: Active | inhibition [3]: Dose-dependent effect | inhibition [4]: Dose-dependent effect

Compound: COc1ccc(C2=N[C@@H](c3ccc(Cl)cc3)[C@@H](c3ccc(Cl)cc3)N2C(=O)N2CCNC(=O)C2)c(OC(C)C)c1 [NUTLIN-3]
GI50 (SAOS-2): 18 µM | GI50 [7]: 2300 nM | GI50 (SJSA-1): 2600 nM | GI50 (HCT-116 [8]): 13 µM | GI50 [9]: 2100 nM | GI50 (HCT-116 [10]): 34 µM

Continued, values first:

IC50 [1]: 69 µM
Compound: CCCN1C(=O)c2ccccc2C1(O)c1ccc(Cl)cc1 (stereo unspecified)

IC50 [1]: 3.1 µM
Compound: O=C1c2ccccc2C(O)(c2ccc(Br)cc2)N1Cc1ccc([N+](=O)[O-])cc1 (stereo unspecified)

IC50 [1]: 7.2 µM
Compound: O=C1c2ccccc2C(O)(c2ccc(Cl)cc2)N1CCc1ccccc1 (stereo unspecified)

IC50 [1]: 6.2 µM
Compound: O=C1c2ccccc2C(O)(c2ccc(Cl)cc2)N1CCc1ccc([N+](=O)[O-])cc1 (stereo unspecified)

IC50 [1]: 47 µM
Compound: O=C1c2ccccc2C(O)(c2ccc(Cl)cc2)N1Cc1cccc2ccccc12 (stereo unspecified)

IC50 [1]: 3.5 µM
Compound: N#Cc1ccc(CN2C(=O)c3ccccc3C2(OCCCCO)c2ccc(Cl)cc2)cc1 (racemic)
